Laboratory results as given in patent publication US9918990B2, “Substituted pyrrolo[2,3-c]pyridines and pyrazolo[3,4-c]pyridines as BET protein inhibitors” (Incyte Corporation, priority 2013, dated 2018).
pIC50: −log10 of the molar value.

Experiments:
KMS.12.BM cells = assay: KMS.12.BM cell viability assay (Cell Titer-GLO, ATP quantitation); assay type: cell-based; details: Homo sapiens, 72 h, 3 days, concentration required for 50% cell death, read-out: KMS cellular IC50
In short: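 Human myeloma KMS.12.BM cells, 5000 cells/well in RPMI with 10% FBS, were exposed to a compound concentration range for 3 days. Viability was read by Cell Titer-GLO ATP luminescence relative to untreated cells; IC50 is the concentration giving 50% cell death.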

C-myc = assay: KMS.12.BM C-myc ELISA assay; assay type: cell-based; details: Homo sapiens; KMS.12.BM cells, 2 hours, concentration required for 50% C-myc inhibition
In short: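 Human myeloma KMS.12.BM cells in RPMI/10% FBS were exposed to a compound concentration range for 2 h, then lysed with protease inhibitors. C-myc in clarified lysates was measured by ELISA. IC50 is the concentration giving 50% C-myc inhibition relative to untreated cells.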

BRD4-BD2 = BRD4-BD2 (Homo sapiens (Human), UniProt O60885); assay: BRD4 AlphaScreen assay, BRD4-BD2; assay type: binding; details: H4Ac4 peptide, 75 min, room temperature, read-out: BRD4 BD-2 enzyme IC50
In short: (§1)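 AlphaScreen read after 75 min dark incubation at room temperature, inhibitors serially diluted in DMSO and added before other components. IC50 from fit of percent control activity versus log inhibitor concentration.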

BRD4-BD1 = BRD4-BD1 (Homo sapiens (Human), UniProt O60885); assay: BRD4 AlphaScreen assay, BRD4-BD1; assay type: binding; details: H4Ac4 peptide, 75 min, room temperature, read-out: BRD4 BD-1 enzyme IC50
In short: as §1

Compound	pIC50 (KMS.12.BM cells)	pIC50 (C-myc)	pIC50 (BRD4-BD2)	pIC50 (BRD4-BD1)
CC(=O)NCc1nc2c(Oc3ccccc3)c(-c3cn(C)c(=O)c4[nH]ccc34)ccc2o1 [Example 104, N-{[5-(6-Methyl-7-oxo-6,7-dihydro-1H-pyrrolo[2,3-c]pyridin-4-yl)-4-phenoxy-1,3-benzoxazol-2-yl]methyl}acetamide]	≥ 6.00	≥ 6.00	> 7.00	> 7.00
Cn1cc(-c2ccc3oc(CNS(C)(=O)=O)nc3c2Oc2ccccc2)c2cc[nH]c2c1=O [Example 105, N-{[5-(6-Methyl-7-oxo-6,7-dihydro-1H-pyrrolo[2,3-c]pyridin-4-yl)-4-phenoxy-1,3-benzoxazol-2-yl]methyl}methanesulfonamide]	≥ 6.00	≥ 6.00	> 7.00	> 7.00
Cn1cc(-c2ccc3oc(CNC(=O)c4ccccc4)nc3c2Oc2ccccc2)c2cc[nH]c2c1=O [Example 106, N-{[5-(6-methyl-7-oxo-6,7-dihydro-1H-pyrrolo[2,3-c]pyridin-4-yl)-4-phenoxy-1,3-benzoxazol-2-yl]methyl}benzamide]	≥ 6.00	5.00 to 6.00	> 7.00	> 7.00
Cn1cc(-c2ccc3oc(CNC(=O)Cc4ccccc4)nc3c2Oc2ccccc2)c2cc[nH]c2c1=O [Example 107, N-{[5-(6-Methyl-7-oxo-6,7-dihydro-1H-pyrrolo[2,3-c]pyridin-4-yl)-4-phenoxy-1,3-benzoxazol-2-yl]methyl}-2-phenylacetamide]	≥ 6.00	≥ 6.00	> 7.00	> 7.00
Cn1cc(-c2ccc3oc(CNC(=O)C4CC4)nc3c2Oc2ccccc2)c2cc[nH]c2c1=O [Example 108, N-{[5-(6-Methyl-7-oxo-6,7-dihydro-1H-pyrrolo[2,3-c]pyridin-4-yl)-4-phenoxy-1,3-benzoxazol-2-yl]methyl}cyclopropanecarboxamide]	≥ 6.00	≥ 6.00	> 7.00	> 7.00
Cn1cc(-c2ccc3oc(CNC(=O)CC4CCCC4)nc3c2Oc2ccccc2)c2cc[nH]c2c1=O [Example 109, 2-Cyclopentyl-N-{[5-(6-methyl-7-oxo-6,7-dihydro-1H-pyrrolo[2,3-c]pyridin-4-yl)-4-phenoxy-1,3-benzoxazol-2-yl]methyl}acetamide]	≥ 6.00	5.00 to 6.00	> 7.00	> 7.00
Cn1cc(-c2ccc3c(ncn3CCC#N)c2Oc2ccccc2)c2cc[nH]c2c1=O [Example 113, 3-[5-(6-Methyl-7-oxo-6,7-dihydro-1H-pyrrolo[2,3-c]pyridin-4-yl)-4-phenoxy-1H-benzimidazol-1-yl]propanenitrile]	≥ 6.00	≥ 6.00	> 7.00	> 7.00
